Tests used:
Assay type in all cases: cell-based
Conditions in all cases: 3 mM sugar; labelled compound
GLT-1 (NCU01633) [1] = biological target: T1, GLT-1 (NCU01633) (Neurospora crassa, UniProt Q1K4S3); experiment: radiolabelled sugar uptake in recombinant yeast, […] min; growth complementation
T1 construct: cDNA cloned in pRS426 shuttle vector (PGK1 promoter, GFP ORF, CYC1 terminator)
T1 sequence (Q1K4S3 1-532): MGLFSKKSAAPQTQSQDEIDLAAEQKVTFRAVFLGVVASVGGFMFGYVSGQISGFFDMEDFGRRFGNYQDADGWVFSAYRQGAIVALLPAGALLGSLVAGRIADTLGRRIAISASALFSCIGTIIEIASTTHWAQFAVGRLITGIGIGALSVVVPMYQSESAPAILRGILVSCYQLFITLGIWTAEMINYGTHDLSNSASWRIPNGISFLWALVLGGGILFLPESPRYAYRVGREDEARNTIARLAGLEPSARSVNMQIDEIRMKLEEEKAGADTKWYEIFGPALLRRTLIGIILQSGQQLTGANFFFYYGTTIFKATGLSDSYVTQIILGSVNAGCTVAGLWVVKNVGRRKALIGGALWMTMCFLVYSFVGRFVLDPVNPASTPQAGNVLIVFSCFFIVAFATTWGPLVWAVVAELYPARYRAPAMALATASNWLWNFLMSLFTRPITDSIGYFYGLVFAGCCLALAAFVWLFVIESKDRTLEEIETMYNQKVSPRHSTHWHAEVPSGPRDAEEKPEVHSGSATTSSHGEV

LAT-1 (NCU02188) [2] = biological target: T2, LAT-1 (NCU02188) (Neurospora crassa, UniProt Q7S4D2); experiment: as above
T2 construct: expressed from pRS426-type vector in hexose-transporter-null S. cerevisiae EBY.VW4000
T2 sequence (Q7S4D2 1-518): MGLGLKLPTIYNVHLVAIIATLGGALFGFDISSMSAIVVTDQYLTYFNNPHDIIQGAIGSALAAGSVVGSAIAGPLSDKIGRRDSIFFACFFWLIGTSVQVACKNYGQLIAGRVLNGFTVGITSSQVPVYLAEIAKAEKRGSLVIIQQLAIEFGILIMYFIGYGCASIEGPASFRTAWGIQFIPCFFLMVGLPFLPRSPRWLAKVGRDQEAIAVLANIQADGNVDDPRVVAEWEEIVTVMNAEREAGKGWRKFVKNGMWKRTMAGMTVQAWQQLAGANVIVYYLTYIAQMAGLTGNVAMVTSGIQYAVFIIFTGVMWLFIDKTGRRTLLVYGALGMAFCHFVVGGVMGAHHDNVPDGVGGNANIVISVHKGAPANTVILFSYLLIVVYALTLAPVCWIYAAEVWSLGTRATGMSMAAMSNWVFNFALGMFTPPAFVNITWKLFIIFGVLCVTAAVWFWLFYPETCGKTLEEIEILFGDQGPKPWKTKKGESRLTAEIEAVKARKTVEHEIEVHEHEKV

GLT-1 (NCU01633) [3] = biological target: T1, GLT-1 (NCU01633); experiment: radiolabelled sugar uptake in recombinant yeast, […] min
LAT-1 (NCU02188) [4] = biological target: T2, LAT-1 (NCU02188); experiment: as above

OC[C@H]1OC(O)[C@H](O)[C@@H](O)[C@@H]1O (stereo partly drawn) [D-glucose]
radiolabelled sugar uptake in recombinant yeast, 2 min; growth complementation (GLT-1 (NCU01633) [1]): D-glucose uptake was two orders of magnitude higher compared to that of D-xylose | radiolabelled sugar uptake in recombinant yeast, 2 min; growth complementation (LAT-1 (NCU02188) [2]): does complement growth of EBY.VW4000 strain on D-glucose, indicating this protein can transport D-glucose

OC1OC[C@@H](O)[C@H](O)[C@H]1O (stereo partly drawn) [D-xylose]
radiolabelled sugar uptake in recombinant yeast, 2 min (GLT-1 (NCU01633) [3]): D-glucose uptake was two orders of magnitude higher compared to that of D-xylose

OC1OC[C@H](O)[C@H](O)[C@H]1O (stereo partly drawn) [L-arabinose]
radiolabelled sugar uptake in recombinant yeast, 2 min (LAT-1 (NCU02188) [4]): the L-arabinose uptake rate was much higher than that of D-glucose

— article PMC4015282, “Transcriptional comparison of the filamentous fungus Neurospora crassa growing on three major monosaccharides D-glucose, D-xylose and L-arabinose” (Biotechnology for Biofuels, 2014)
